Results published in US20250108358A1, “PHOTOCHEMICALLY DRIVEN REGENERATION OF CARBON DIOXIDE SORBENTS” (UT-Battelle, LLC, priority 2023, published 2025).

Legend:
[1] = Head space CO2 release measurement (infrared sensor, 470 nm LED); details: mPAH 2/morpholine
Source text: This step is important to reproducibly measure the CO2 release as described below. […] After the reading of CO2 was steady, irradiation was applied from outside of the glass chamber using a 470 nm LED with moderate power (˜ 13 mW/cm^2). The CO2 released to the chamber was monitored using a head space method, as also used in previous studies. The concentration of CO2 gas in the chamber was monitored by the sensor and compared to that of a standard. Not only does this method directly measure the CO2 gas released, but also it is suitable for studying relatively small samples with good sensitivity. […] Addition of a strong acid leads to complete decomposition of the bicarbonate and CO2 release. […] It also reacts with CO2 via an acid-base reaction to form bicarbonate salt.

[2] = Solubility in water; assay type: physicochemical
[3] = pH measurements of mPAH 1 solutions under 355 nm lamp irradiation; assay type: physicochemical
Source text: Light sources: The light source, referred as the 355 nm lamp thereafter, is a portion of the output of an Oriel 200 W mercury-xenon lamp, which was selected using a 2″ round Oriel broadband filter centered at 355 nm with a full width at half maximum of ˜150 nm and highest transmission of ˜90% (Filters 51664 and 59814). The photon fluxes at the sample position was ˜500 μmol·m^−2·s^−1, which measured using a handheld meter.
pH measurements and absorption spectra measurements: Typically for all experiments using the 355 nm lamp, 6 mL of solution mixtures were placed in a glass vial of diameter ˜2 cm and pH variations of the solutions upon light exposure were monitored continuously using a pH meter. Solutions were exposed to air and continuously stirred during pH measurements and sealed and kept in the dark without stirring for the mPAH 1 reverse reaction. Calculated amount of bicarbonate was replaced prior to second and third cycles. All absorption spectra during a given reaction event were acquired using a UV-vis spectrometer by taking a small amount (˜200 μL) of solution. Co-existence of different mPAH 1 conformers were verified using 1H NMR spectroscopy and theoretical calculations.

[4] = Total inorganic carbon (TIC) analysis, CO2-loaded glycine system; details: for reduction in the inorganic carbon content: vs CO2-loaded glycine solution
Method: See F. M. Brethome et al., Nat. Energy 2018, 3, 553-559 and R. Custelcean et al., Ind. Eng. Chem. Res. 2019, 58, 23338-23346.
(§1) Total inorganic carbon analysis: To quantify the amount of total inorganic carbon converted to CO2, the quantities of bicarbonate in the solution before and after the irradiation were determined using a total inorganic carbon analyzer consisting of an acidification module and a coulometric detection. […] Air was used as carrier gas (100 mL/min) in all experiments. 1 mM KHCO3 solution was tested similarly as the reference sample. Calculations were based on sample volume and 1 M Na2CO3 was used as the standard solution.

[5] = Total inorganic carbon (TIC) analysis, simulated system with KHCO3
Method: as §1

solubility in water [2] | SMILES | time after start of irradiation at which head space [CO2] rose [1] | rate of pH increase owing to CO2 release ([3]; 1 mM mPAH 1 + 1 mM KHCO3, second cycle of irradiation) | rate of pH increase owing to CO2 release ([3]; 1 mM mPAH 1 + 1 mM KHCO3, third cycle of irradiation) | pH increment ([3]; 1 mM mPAH 1 + 1 mM KHCO3, third cycle performed only 4 hours after the second cycle) | time for full reverse reaction to the initial trans isomer ([3]; mPAH 1 itself, in the dark) | reduction in the inorganic carbon content ([4]; 1 mM mixture of CO2-loaded glycine and mPAH 1, upon irradiation) | reduction in the inorganic carbon content ([4]; 20 mM mixture of CO2-loaded glycine and mPAH 1, upon irradiation) | efficiency of conversion of total inorganic carbon to CO2 ([4]; amino acid (AA)-based DAC systems, with respect to initial concentrations) | total inorganic carbon in the solution converted to CO2 ([5]; 1 mM mPAH 1 + 1 mM KHCO3 (simulated system), upon irradiation) | total bicarbonate converted to CO2 ([5]; 2 mM mPAH 1 pre-irradiated 30 min, mixed with equal volume 2 mM KHCO3, reaction without irradiation) | total bicarbonate converted to CO2 ([5]; 2 mM mPAH 1 pre-irradiated, mixed with equal volume 2 mM KHCO3, continuous irradiation)
about 30 mM | COC(=O)c1ccc2sc(/C=C/c3cc(S(=O)(=O)[O-])cc4cn[nH]c34)[n+](CCCS(=O)(=O)O)c2c1 [mPAH 2] | ~5 min | – | – | – | – | – | – | – | – | – | –
– | O=S(=O)([O-])CCC[n+]1c(/C=C/c2cc(S(=O)(=O)[O-])cc3cn[nH]c23)sc2ccccc21.[Na+] [mPAH 1] | – | 0.35 pH units/hour | 0.11 pH units/hour | 0.31 pH units/hour | 4 to 6 h | approximately 68% | ~78% | 68%-78% | 55% | ~3% | ~50%
